Values after ≈ are worked out from the molar mass of the structure shown.
Assays:
human DHFR [1] = biological target: T1, human DHFR (Homo sapiens, UniProt P00374); assay: Inhibition of human DHFR (I50-derived Ki); format: biochemical; conditions: Human Ki (I50)(nM);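 further: recombinant human DHFR expressed in E. coli and purified by methotrexate affinity chromatography, enzyme activity followed spectrophotometrically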
T1 construct: made in house; host or cells: E. coli M15
T1 sequence (P00374 1-187): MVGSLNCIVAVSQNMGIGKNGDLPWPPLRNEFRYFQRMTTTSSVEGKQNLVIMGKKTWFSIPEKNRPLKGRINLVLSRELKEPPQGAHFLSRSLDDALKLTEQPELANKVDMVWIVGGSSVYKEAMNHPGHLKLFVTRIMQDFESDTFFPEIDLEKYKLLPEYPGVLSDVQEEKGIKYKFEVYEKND
Method: (§1) Folic acid and NADPH, were purchased from Sigma. Dihydrofolate was prepared from folic acid dithionate reduction. Methotrexate (MTX) was from Lederle Laboratories. MTX sepharose CL-6B was prepared according to the protocol described by Dann. et al. IPTG came from Boehringer Manheim. The expression system used for recombinant human DHFR production, which includes the plasmid PB-E1/RB SII, SphI-HDHFR expressed in E. coli M15, was supplied by Santi, D. V (Department of Biochemistry and Biophysics and Department of Pharmaceutical Chemistry, University of California). Recombinant T. Cruzi DHFR-TS was produced using the system pET 11c with the insertion of the complete ORF of the gene tc-dhfrts. The resulting plasmid was called pET DT.
(§2) Human and T.cruzi DHFR were produced using inducible expression systems. For human DHFR, fresh overnight cultures of E. coli M15, transformed with the plasmid, pB-E1/RB SII, SphI-HDHFR, were grown in LB and 0.1 mg/ml ampicillin medium at 28° C. For T.cruzi DHFR-TS, cultures of E. coli, BL21 (DE3) transformed with the plasmid pETDT system were grown at 37° C. The same purification protocol was used for both systems. When OD600 was at 0.8, cells pellets were collected by centrifugation, suspended in 50 ml of LB medium, containing 0.1 mg/ml of ampicillin. 10 ml of this preinocule was added to 2 litres of LB medium. Cultures were shaken at 28° C. or 37° C. (for human and T. cruzi DHFR respectively) and induction with IPTG ImM was performed when OD600 reached 0.8. After IPTG induction, cells were grown overnight in a shaker at 28° C. or 5 hours at 28° C. or 37° C. (for human and T. cruzi DHFR respectively) and then harvested by centrifugation.
(§3) Cell pellets were suspended in sonication buffer (2× TES DHFR:TES 100 mM, 2-mercaptoethanol 150 mM, EDTA 2 mM pH=7) containing protease inhibitors.
(§4) Crude extract was circulated through the MTX-Sepharose column at 4° C. at a flow rate of 0.2 ml/min until the protein was bound to the resin. The column was washed with an excess of buffer B (KH2PO410 mM pH 7, KC1 1M). Protein was eluted at 0.2 min/ml with an elution buffer (100 mM TES, 10 mM DTT, 2 mM EDTA, DHF 8.5 mM), the elution profile was collected in 1 ml fractions using a Pharmacia LKB Frac 200 collector. Finally, the protein was desalted using molecular size exclusion chromatography in a Pharmacia G-25 column. Fractions containing DHFR activity were pooled and concentrated by ultrafiltration using centripreps Amicon.
(§5) The purity of the protein preparation was assessed by detection of a single band of the correct molecular weight stained with coomasie blue following a 12% SDS-PAGE. Protein concentration was determined by the method of Bradford using a BSA as a standard. DHFR activity was measured spectrophotometrically by monitoring the decrease in absorbance at 340 mm. […] One unit of enzyme, is defined as the amount of enzyme which produces 1 nmol of product per min using ε of 12300M^−1 at 340 nm.
(§6) Inhibition of dihydrofolate reductases by 1,2-dihydro-1,3,5 triazines was analysed with T. cruzi and human DHFR.
(§7) DHFR assays contained 30 mM dihydrofolate, 0.1 mM NADPH, 50 mM TES buffer pH 7, 75 mM 2-mercaptoethanol and specified amounts of inhibitors. The reaction was initiated by addition of 2.8 or 2.3 units of T. cruzi and human, respectively, and monitored at 340 nm.
(§8) Selective inhibition of dihydrofolate reductase by 1,2-dihydro-1,3,5-triazines was analysed with T. cruzi and human DHFR. DHFR assays contained 30 μM dihydrofolate, 0.1 mM NADPH, 50 mM TES buffer pH 7, 75 mM β-mercaptoethanol and specified amounts of inhibitors. The reaction was initiated by addition of 2.8 or 2.3 units of T. cruzi and human enzyme, respectively, and monitored at 340 nm. […] KiI 50=[I]0.5/((1+[S])/Km)

human DHFR [2] = assay: Inhibition of human DHFR (I50-derived Ki); format: biochemical;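 further: recombinant human DHFR expressed in E. coli and purified by methotrexate affinity chromatography, enzyme activity followed spectrophotometrically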
Method: as §1, §2, §3, §4, §5, §6, §7, §8

[3] = biological target: T2, A16V.S108T mutant (mut) of DHFR from Plasmodium falciparum (Plasmodium falciparum, UniProt A7UD81, A16V/S108T); assay: biochemical
T2 construct: The Dihydrofolate Reductase Domain of Plasmodium falciparum Thymidylate Synthase-Dihydrofolate Reductase; made in house
T2 sequence (A7UD81 1-231 A16V/S108T): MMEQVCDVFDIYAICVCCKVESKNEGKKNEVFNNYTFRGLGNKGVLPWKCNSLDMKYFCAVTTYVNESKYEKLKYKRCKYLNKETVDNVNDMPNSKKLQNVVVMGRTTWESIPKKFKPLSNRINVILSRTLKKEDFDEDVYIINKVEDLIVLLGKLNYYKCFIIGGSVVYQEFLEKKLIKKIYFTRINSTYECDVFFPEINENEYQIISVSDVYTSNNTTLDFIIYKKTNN
Method: (§9) For determination of the Ki values of a number of synthesized analogues, the assay reactions were initiated with affinity-purified enzyme (^˜0.005-0.01 U ml^−1), and the initial velocities in the presence of varying concentrations of inhibitors were analysed by non-linear least square fit using Kaleidagraph™ software.

[4] = system: A16V.S108T mutant (mut) of DHFR from Plasmodium falciparum; assay: biochemical; conditions: resistance factor
Method: as §9

[5] = biological target: T3, DHFR-TS from Trypanosoma cruzi (Trypanosoma cruzi, UniProt Q27793); assay: Inhibition of T. cruzi DHFR-TS (I50-derived Ki);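 on all read-outs here: enzymes were recombinant T. cruzi DHFR-TS and human DHFR, both expressed in E. coli and purified on a methotrexate affinity column, with dihydrofolate and NADPH as substrates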; format: biochemical; conditions: for Selectivity: human Ki / T. cruzi Ki
T3 construct: pET 11c with the insertion of the complete ORF of the gene tc-dhfrts; made in house; host or cells: E. coli BL21 (DE3)
T3 sequence (Q27793 whole entry): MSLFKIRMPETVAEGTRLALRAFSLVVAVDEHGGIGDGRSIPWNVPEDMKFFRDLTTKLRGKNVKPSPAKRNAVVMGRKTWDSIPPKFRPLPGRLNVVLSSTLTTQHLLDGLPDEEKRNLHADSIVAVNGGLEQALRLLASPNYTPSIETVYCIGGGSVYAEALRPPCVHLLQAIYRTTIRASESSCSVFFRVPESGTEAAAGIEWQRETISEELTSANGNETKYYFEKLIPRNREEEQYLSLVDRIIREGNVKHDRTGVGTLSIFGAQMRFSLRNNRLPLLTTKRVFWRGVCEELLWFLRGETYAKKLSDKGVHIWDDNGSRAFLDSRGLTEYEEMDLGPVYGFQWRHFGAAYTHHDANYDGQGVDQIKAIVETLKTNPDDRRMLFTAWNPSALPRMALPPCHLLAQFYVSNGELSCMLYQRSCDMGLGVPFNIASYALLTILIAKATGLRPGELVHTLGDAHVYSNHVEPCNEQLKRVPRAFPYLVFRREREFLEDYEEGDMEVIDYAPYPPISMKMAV
Method: DHFR activity was measured spectrophotometrically by monitoring the decrease in absorbance at 340 mm.
as §6, §7
Selective inhibition of dihydrofolate reductase by 1,2-dihydro-1,3,5-triazines was analysed with T. cruzi and human DHFR. DHFR assays contained 30 μM dihydrofolate, 0.1 mM NADPH, 50 mM TES buffer pH 7, 75 mM β-mercaptoethanol and specified amounts of inhibitors. The reaction was initiated by addition of 2.8 or 2.3 units of T. cruzi and human enzyme, respectively, and monitored at 340 nm.
KiI 50=[I]0.5/((1+[S])/Km)

[6] = biological target: T4, wild-type (wt) DHFR from Plasmodium falciparum (Plasmodium falciparum, UniProt P13922, N108S/R59C); assay: Inhibition of wild-type pfDHFR (spectrophotometric, Ki); format: biochemical; conditions: Ki(wt) nM;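 further: Affinity-purified enzyme, initial reaction rates measured across a range of inhibitor concentrations, Ki obtained by nonlinear least-squares fitting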
T4 construct: The Dihydrofolate Reductase Domain of Plasmodium falciparum Thymidylate Synthase-Dihydrofolate Reductase; made in house
T4 sequence (P13922 10-228 R59C/N108S): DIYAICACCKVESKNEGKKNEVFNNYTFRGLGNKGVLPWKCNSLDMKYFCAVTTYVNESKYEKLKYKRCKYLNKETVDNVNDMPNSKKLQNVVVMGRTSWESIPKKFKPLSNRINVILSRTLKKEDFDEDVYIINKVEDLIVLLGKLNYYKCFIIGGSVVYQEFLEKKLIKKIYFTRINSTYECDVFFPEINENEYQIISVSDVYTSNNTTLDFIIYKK
Method: as §9

[7] = system: wild-type (TM4/8.2) strain of P. falciparum; assay: microbe, parasite or virus in culture; format: cell-based, Plasmodium falciparum; conditions: Plasmodium falciparum; wild-type strain TM4/8.2
Method: Mol. Biochem. Parasitol. […] Science, 1976, 193, 673-675]. In vitro antimalarial activity was determined by using [^3H]-hypoxanthine incorporation method [Desjardins, R. E.; Canfield, C. J.; Haynes, J. D.; Chulay, J. D. Quantitative assessment of antimalarial activity in vitro by a semiautomated microdilution technique. Antimicrob Agents Chemother. 1979, 16, 710-718]. The drugs were initially dissolved in DMSO and diluted with the culture media. Aliquots (25 μl) of drug solution of different concentrations was placed in 96-well plate together with 200 μl of 1.5% cell suspension of parasitized erythrocytes containing 1-2% parasitemia. Final concentration of DMSO was 0.1% where there was no effect on the parasite growth. The mixtures were incubated in a 3% CO2 incubator at 37° C. After 24 h of incubation, 25 μl (0.25 μCi) of [^3H]-hypoxanthine were added to each well. The mixtures were further incubated under the same condition for 18-24 h. DNA of parasites was harvested onto glass filter paper (Unifilter, Packard, USA). The filters were dried and liquid scintillation fluid was added for radioactivity measurement in a 6-probe liquid scintillation-counter (Packard, USA).

[8] = system: P. falciparum 3D7 (wild-type strain); assay: In vitro inhibition of P. falciparum 3D7; format: cell-based, Plasmodium falciparum; conditions: Plasmodium falciparum, 3D7 strain, read-out: Pf-3D7 ED50
[9] = system: P. falciparum FCR3 (resistant strain containing the A16V.S108T DHFR mutant); assay: In vitro inhibition of P. falciparum FCR3; format: cell-based, Plasmodium falciparum; conditions: Plasmodium falciparum; in vitro, FCR3 strain; read-out: Pf-FCR3 ED50

Compound | Ki (human DHFR [1]; human DHFR) | Ki (human)/Ki (P. falc. mut) (human DHFR [2]) | Ki (human)/Ki (P. falc. wt) (human DHFR [2]) | Ki (human)/Ki (T. cruzi) (human DHFR [2]) | Ki [3] | Ki(mut)/Ki(wt) [4] | Ki [5] | Selectivity [5] | Ki [6] | IC50 [7] | IC50 [8] | IC50 [9] | Ki (human DHFR [1])
CCCCOc1ccc(C2N=C(N)N=C(N)N2c2ccc(OCc3ccccc3)cc2)cc1 (stereo not drawn) [1-p-benzyloxyphenyl-2-p-n-butoxyphenyl-4,6-diamino-1,2-dihydro-1,3,5-triazine] | 203 nM | 31 | 253 | 4.1 | 6.6 ± 0.6 nM | 8.2 | 49 nM | 4.1 | 0.8 ± 0.1 nM | 384 nM |  |  | 
COc1ccc(Oc2cccc(C3N=C(N)N=C(N)N3c3ccc(Cl)cc3)c2)cc1 (stereo not drawn) [(Ia) R2=3-(4-methoxyphenoxyl)phenyl] | 830 nM |  |  |  | 6.6 nM | 9.4 | 48 nM | 17 | 0.7 nM | 2880 nM | 5.19 µg/mL (≈ 12.3 µM) | 1.25 µg/mL (≈ 2.96 µM) | 
CC(C)(C)c1ccc(Oc2cccc(C3N=C(N)N=C(N)N3c3ccc(Cl)cc3)c2)cc1 (stereo not drawn) [(Ia) R2=3-(4-t-butylphenoxy)phenyl] | 770 nM |  |  |  | 9.9 ± 1.5 nM | 5.8 | 112 nM | 7 | 1.7 nM | 4120 nM | 0.75 µg/mL (≈ 1.67 µM) | 0.26 µg/mL (≈ 0.58 µM) | 
NC1=NC(c2ccc(-c3ccccc3)cc2)N(c2ccc(Cl)cc2)C(N)=N1 (stereo not drawn) [(Ia) R2=4-biphenyl] |  |  |  |  | 8.5 nM | 6.5 |  |  | 1.3 ± 0.1 nM | 621 nM | 2.2 µg/mL (≈ 5.85 µM) | 0.68 µg/mL (≈ 1.81 µM) | 
Cl.NC1=NCN(c2ccc(Cl)cc2)C(N)=N1 [(Ia) R2=H, 1-(4′-Chlorophenyl)-4,6-diamino-1,2-dihydro-1,3,5-triazine hydrochloride] |  | 1.9 | 49.7 | 75.7 | 649 ± 77 nM | 26 | 16 nM | 76 | 24.4 ± 4.3 nM | 952 nM | 0.04 µg/mL | 0.13 µg/mL | 1210 nM
NC1=NC(c2cccc(OCc3ccccc3)c2)N(c2ccc(Cl)cc2)C(N)=N1 (stereo not drawn) [(Ia) R2=m-benzyloxyphenyl] |  |  |  |  | 6.2 nM | 8.8 |  |  | 0.7 nM | 832 nM | 0.18 µg/mL (≈ 0.443 µM) | 0.62 µg/mL (≈ 1.53 µM) | 
NC1=NC(c2cccc(Oc3ccccc3)c2)N(c2ccc(Cl)cc2)C(N)=N1 (stereo not drawn) [(Ia) R2=m-phenoxyphenyl, 1-p-chlorophenyl-2-m-phenoxyphenyl-4,6-diamino-1,2-dihydro-1,3,5-triazine] | 190 nM |  |  |  | 2.7 nM | 5.4 | 21 nM | 9 | 0.5 nM | 367 nM | 0.28 µg/mL (≈ 0.715 µM) | 0.32 µg/mL (≈ 0.817 µM) | 
NC1=NC(c2ccc(OCc3ccccc3)cc2)N(c2ccc(Cl)cc2)C(N)=N1 (stereo not drawn) [(Ia) R2=p-benzyloxyphenyl] | 1110 nM |  |  |  | 4.4 nM | 7.3 | 13 nM | 85 | 0.6 nM | 107 nM | 0.26 µg/mL (≈ 0.641 µM) |  | 
CCCCOc1ccc(C2N=C(N)N=C(N)N2c2ccc(Cl)cc2)cc1 (stereo not drawn) [(Ia) R2=p-butyloxyphenyl, 1-p-chlorophenyl-2-p-n-butyloxyphenyl-4,6-diamino-1,2-dihydro-1,3,5-triazine] | 400 nM | 80 | 400 | 15.3 | 5 nM | 5.0 | 26 nM | 15 | 1 ± 0.1 nM | 287 nM | 0.14 µg/mL (≈ 0.376 µM) | 0.091 µg/mL (≈ 0.245 µM) | 
CCOc1ccc(C2N=C(N)N=C(N)N2c2ccc(Cl)cc2)cc1 (stereo not drawn) [(Ia) R2=p-ethoxyphenyl, 1-p-chlorophenyl-2-p-ethoxyphenyl-4-6-diamino-1,2-dihydro-1,3,5-triazine] | 1730 nM | 48 | 1153 | 24.7 | 36 ± 6 nM | 24.3 | 70 nM | 25 | 1.5 ± 0.2 nM | 181 nM |  |  | 
NC1=NC(c2ccc(F)cc2)N(c2ccc(Cl)cc2)C(N)=N1 (stereo not drawn) [(Ia) R2=p-fluorophenyl] | 10600 nM | 81 | 1227 | 10.4 | 130 ± 17 nM | 15.1 | 1010 nM | 10 | 8.6 ± 1.4 nM | 359 nM |  |  | 
CC(C)c1ccc(C2N=C(N)N=C(N)N2c2ccc(Cl)cc2)cc1 (stereo not drawn) [(Ia) R2=p-isopropylphenyl, 1-p-chlorophenyl-2-p-isopropylphenyl-4,6-diamino-1,2-dihydro-1,3,5-triazine] | 10000 nM | 661 | 5289 | 167 | 15.2 ± 1.6 nM | 8.0 | 60 nM | 167 | 1.9 ± 0.6 nM | 973 nM |  |  | 
COc1ccc(C2N=C(N)N=C(N)N2c2ccc(Cl)cc2)cc1 (stereo not drawn) [(Ia) R2=p-methoxyphenyl, 1-p-chlorophenyl-2-p-methoxyphenyl-4,6-diamino-1,2-dihydro-1,3,5-triazine] | 5530 nM | 42.9 | 485 | 212 | 129 ± 25 nM | 11.3 | 26 nM | 212 | 11.4 ± 1.5 nM | 424 nM |  |  | 
NC1=NC(c2ccc(Oc3ccccc3)cc2)N(c2ccc(Cl)cc2)C(N)=N1 (stereo not drawn) [(Ia) R2=p-phenoxyphenyl, 1-p-chlorophenyl-2-p-phenoxyphenyl-4,6-diamino-1,2-dihydro-1,3,5-triazine] | 1130 nM |  |  |  | 3.8 nM | 9.5 | 3 nM | 376 | 0.4 nM | 121 nM | 0.07 µg/mL (≈ 0.179 µM) | 0.2 µg/mL (≈ 0.51 µM) | 
CC(C)(C)c1ccc(Oc2cccc(C3N=C(N)N=C(N)N3c3cccc(Cl)c3)c2)cc1 (stereo not drawn) [(Ib) R2=3-(4-t-butylphenoxy)phenyl] |  |  |  |  | 5.6 ± 0.9 nM | 0.7 |  |  | 7.7 ± 0.5 nM | 5040 nM | > 0.3 µg/mL | 0.47 µg/mL (≈ 1.05 µM) | 
NC1=NC(c2cccc(OCc3ccccc3)c2)N(c2cccc(Cl)c2)C(N)=N1 (stereo not drawn) [(Ib) R2=3-benzyloxyphenyl] | 46 nM |  |  |  | 3.2 ± 0.2 nM | 1.4 | 12 nM | 3.8 | 2.3 ± 0.5 nM | 3970 nM | 0.45 µg/mL (≈ 1.11 µM) | 0.019 µg/mL (≈ 0.0468 µM) | 
NC1=NCN(c2ccc(OCc3ccccc3)cc2)C(N)=N1 [R2=H, X=BnO, Y=H] | 44 nM | 1.54 | 1.96 | 4.44 | 28.6 ± 2.2 nM | 1.3 | 10 nM | 4.4 | 22.4 ± 1.3 nM | 690 nM |  |  | 
NC1=NCN(c2cccc(Cc3ccccc3)c2)C(N)=N1 [R2=H, X=H, Y=Bn] | 66 nM | 11 | 7.0 | 2.27 | 6 ± 0.1 nM | 0.6 | 29 nM | 2.3 | 9.4 ± 0.4 nM | 403 nM |  |  | 

Reference: patent US20030203908A1, “Dihydrofolate reductase inhibitors” (priority 2000, published 2003)
